Tested on: Mitochondria-located protein genes
Experiment: DNA chip mRNA expression in yeast, mitochondria-located protein genes (Table 2)
Format: cell-based, Saccharomyces cerevisiae S288C
Conditions: cells incubated two hours with the chemical substance
How it was run: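 Chemical exposure: 2 h, log-phase S. cerevisiae S288C, YPD, 25° C., dose set to inhibit growth without death. Profiling: mRNA labeled by reverse transcription with Cy3- or Cy5-dUTP, hybridized to whole-genome array. Output: fluorescence ratio against untreated culture.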

## S=C([S-])NCCNC(=S)[S-].[Zn+2] [(11), zinc N,N′-ethylenebis(dithiocarbamate)]
Yeast gene YAL039C
  The level of expressed mRNA in the presence of chemical substance/The level of expressed mRNA in the absence of chemical substance: 1.1
Yeast gene YBL022C
  The level of expressed mRNA in the presence of chemical substance/The level of expressed mRNA in the absence of chemical substance: 1.1
Yeast gene YBL030C
  The level of expressed mRNA in the presence of chemical substance/The level of expressed mRNA in the absence of chemical substance: 1.1
Yeast gene YBL038W
  The level of expressed mRNA in the presence of chemical substance/The level of expressed mRNA in the absence of chemical substance: 0.7
Yeast gene YBL099W
  The level of expressed mRNA in the presence of chemical substance/The level of expressed mRNA in the absence of chemical substance: 2.1
Yeast gene YBR003W
  The level of expressed mRNA in the presence of chemical substance/The level of expressed mRNA in the absence of chemical substance: 1.3
Yeast gene YBR044C
  The level of expressed mRNA in the presence of chemical substance/The level of expressed mRNA in the absence of chemical substance: 1.1
Yeast gene YBR091C
  The level of expressed mRNA in the presence of chemical substance/The level of expressed mRNA in the absence of chemical substance: 0.7
Yeast gene YBR122C
  The level of expressed mRNA in the presence of chemical substance/The level of expressed mRNA in the absence of chemical substance: 1.2
Yeast gene YBR185C
  The level of expressed mRNA in the presence of chemical substance/The level of expressed mRNA in the absence of chemical substance: 1.2
Yeast gene YBR221C
  The level of expressed mRNA in the presence of chemical substance/The level of expressed mRNA in the absence of chemical substance: 1.2
Yeast gene YBR251W
  The level of expressed mRNA in the presence of chemical substance/The level of expressed mRNA in the absence of chemical substance: 1.5
Yeast gene YBR282W
  The level of expressed mRNA in the presence of chemical substance/The level of expressed mRNA in the absence of chemical substance: 0.9
Yeast gene YCL057W
  The level of expressed mRNA in the presence of chemical substance/The level of expressed mRNA in the absence of chemical substance: 1.6
Yeast gene YCR046C
  The level of expressed mRNA in the presence of chemical substance/The level of expressed mRNA in the absence of chemical substance: 1.5
Yeast gene YCR083W
  The level of expressed mRNA in the presence of chemical substance/The level of expressed mRNA in the absence of chemical substance: 1.8
Yeast gene YDL067C
  The level of expressed mRNA in the presence of chemical substance/The level of expressed mRNA in the absence of chemical substance: 1.4
Yeast gene YDL181W
  The level of expressed mRNA in the presence of chemical substance/The level of expressed mRNA in the absence of chemical substance: 0.8
Yeast gene YDL198C
  The level of expressed mRNA in the presence of chemical substance/The level of expressed mRNA in the absence of chemical substance: 2.5
Yeast gene YDR079W
  The level of expressed mRNA in the presence of chemical substance/The level of expressed mRNA in the absence of chemical substance: 1.3
Yeast gene YDR178W
  The level of expressed mRNA in the presence of chemical substance/The level of expressed mRNA in the absence of chemical substance: 2.0
Yeast gene YDR231C
  The level of expressed mRNA in the presence of chemical substance/The level of expressed mRNA in the absence of chemical substance: 1.3
Yeast gene YDR258C
  The level of expressed mRNA in the presence of chemical substance/The level of expressed mRNA in the absence of chemical substance: 1.7
Yeast gene YDR298C
  The level of expressed mRNA in the presence of chemical substance/The level of expressed mRNA in the absence of chemical substance: 1.2
Yeast gene YDR347W
  The level of expressed mRNA in the presence of chemical substance/The level of expressed mRNA in the absence of chemical substance: 0.8
Yeast gene YDR377W
  The level of expressed mRNA in the presence of chemical substance/The level of expressed mRNA in the absence of chemical substance: 1.4
Yeast gene YDR529C
  The level of expressed mRNA in the presence of chemical substance/The level of expressed mRNA in the absence of chemical substance: 0.8
Yeast gene YEL024W
  The level of expressed mRNA in the presence of chemical substance/The level of expressed mRNA in the absence of chemical substance: 0.9
Yeast gene YEL039C
  The level of expressed mRNA in the presence of chemical substance/The level of expressed mRNA in the absence of chemical substance: 1.7
Yeast gene YER178W
  The level of expressed mRNA in the presence of chemical substance/The level of expressed mRNA in the absence of chemical substance: 2.5
Yeast gene YFL016C
  The level of expressed mRNA in the presence of chemical substance/The level of expressed mRNA in the absence of chemical substance: 1.2
Yeast gene YGL018C
  The level of expressed mRNA in the presence of chemical substance/The level of expressed mRNA in the absence of chemical substance: 1.1
Yeast gene YGL187C
  The level of expressed mRNA in the presence of chemical substance/The level of expressed mRNA in the absence of chemical substance: 0.7
Yeast gene YGL191W
  The level of expressed mRNA in the presence of chemical substance/The level of expressed mRNA in the absence of chemical substance: 1.6
Yeast gene YGR008C
  The level of expressed mRNA in the presence of chemical substance/The level of expressed mRNA in the absence of chemical substance: 2.6
Yeast gene YGR028W
  The level of expressed mRNA in the presence of chemical substance/The level of expressed mRNA in the absence of chemical substance: 1.1
Yeast gene YGR062C
  The level of expressed mRNA in the presence of chemical substance/The level of expressed mRNA in the absence of chemical substance: 1.6
Yeast gene YGR076C
  The level of expressed mRNA in the presence of chemical substance/The level of expressed mRNA in the absence of chemical substance: 1.7
Yeast gene YGR082W
  The level of expressed mRNA in the presence of chemical substance/The level of expressed mRNA in the absence of chemical substance: 1.3
Yeast gene YGR174C
  The level of expressed mRNA in the presence of chemical substance/The level of expressed mRNA in the absence of chemical substance: 1.3
Yeast gene YGR244C
  The level of expressed mRNA in the presence of chemical substance/The level of expressed mRNA in the absence of chemical substance: 1.8
Yeast gene YHR008C
  The level of expressed mRNA in the presence of chemical substance/The level of expressed mRNA in the absence of chemical substance: 2.1
Yeast gene YIL155C
  The level of expressed mRNA in the presence of chemical substance/The level of expressed mRNA in the absence of chemical substance: 1.3
Yeast gene YJL096W
  The level of expressed mRNA in the presence of chemical substance/The level of expressed mRNA in the absence of chemical substance: 1.2
Yeast gene YJL102W
  The level of expressed mRNA in the presence of chemical substance/The level of expressed mRNA in the absence of chemical substance: 0.7
Yeast gene YJL133W
  The level of expressed mRNA in the presence of chemical substance/The level of expressed mRNA in the absence of chemical substance: 1.2
Yeast gene YJL166W
  The level of expressed mRNA in the presence of chemical substance/The level of expressed mRNA in the absence of chemical substance: 1.4
Yeast gene YJL180C
  The level of expressed mRNA in the presence of chemical substance/The level of expressed mRNA in the absence of chemical substance: 1.4
Yeast gene YJR045C
  The level of expressed mRNA in the presence of chemical substance/The level of expressed mRNA in the absence of chemical substance: 1.4
Yeast gene YJR077C
  The level of expressed mRNA in the presence of chemical substance/The level of expressed mRNA in the absence of chemical substance: 1.6

— patent US8192962B2, “Processes for detecting toxic substances” (Daikin Industries, Ltd., priority 2001, dated 2012)
